Drawing on US20120020915A1, “Compounds and Methods for Treating Cancer and Diseases of the Central Nervous System” (QUEENS UNIVERSITY AT KINGSTON, priority 2007, published 2012), this text covers melting point and IC50 for 32 molecules.

Counter-ions that a name gives are not always drawn. Like-named read-outs stand apart in the source and are kept apart here.

For one series, the target named is T1, HO-1 (rat spleen) (Rattus norvegicus, UniProt P06762).
T1 construct: Spleen microsomes were used as a source of HO-1; from tissue; host or cells: spleen microsomal fraction of adult male Sprague-Dawley rats
T1 sequence (P06762 1-289): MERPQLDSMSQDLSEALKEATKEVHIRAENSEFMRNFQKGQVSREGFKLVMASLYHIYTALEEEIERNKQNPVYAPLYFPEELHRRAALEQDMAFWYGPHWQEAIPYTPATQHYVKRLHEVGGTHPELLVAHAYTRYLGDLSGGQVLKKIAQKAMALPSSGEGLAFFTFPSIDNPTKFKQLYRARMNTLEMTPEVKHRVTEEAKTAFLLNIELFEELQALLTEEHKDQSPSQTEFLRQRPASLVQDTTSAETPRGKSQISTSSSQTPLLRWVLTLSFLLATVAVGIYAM
Kind of series: HO enzymatic activity, rat spleen microsomal fraction (CO formation from methemalbumin). Type of series: biochemical. Here is the method:
(§1) Incubations for HO activity analysis were done under conditions for which the rate of CO formation (pmol CO×min^−1×mg protein^−1) was linear with respect to time and microsomal protein concentration. Briefly, reaction mixtures (150 μL) consisting of 100 mM phosphate buffer (pH 7.4), 50 μM methemalbumin, and 1 mg/mL protein were pre-incubated with the inhibitors at final concentrations ranging from 0.1-100 μM for 10 minutes at 37° C. Reactions were initiated by adding NADPH at a final concentration of 1 mM and incubations were performed for an additional 15 minutes at 37° C.
(§2) Incubations for HO activity analysis were done under conditions for which the rate of CO formation (pmol CO/mg protein/minute) was linear with respect to time and microsomal protein concentration. Briefly, reaction mixtures (150 μL) consisting of 100 mM phosphate buffer (pH 7.4), 50 μM methemalbumin and 1 mg/mL protein were pre-incubated with the vehicle (ethanol or water in which the inhibitors were dissolved), or inhibitors at final concentrations ranging from 0.1-1000 μM for 10 minutes at 37° C. Reactions were initiated by adding β-NADPH at a final concentration of 1 mM and incubations were carried out for an additional 15 minutes at 37° C. Reactions were stopped by instantly freezing the reaction mixture on pulverized dry ice and CO formation was measured by gas chromatography using a TA 3000R Process Gas Analyzer (Trace Analytical/Ametek, Newark, Del., USA).
(§3) The values on the abscissa represent the decimal logarithm of the inhibitor's concentration (in μM), whereas the values of the activity on the ordinate are expressed as a percentage of the control experiments without inhibitor.
(§4) The IC50 values for the replicate experiments were employed to generate the reported standard deviation value.

For the next series, the target named is T2, HO-2 (rat brain) (Rattus norvegicus, UniProt P23711).
T2 construct: brain microsomes were used as a source of HO-2; from tissue; host or cells: brain microsomal fraction of adult male Sprague-Dawley rats
T2 sequence (P23711 1-315): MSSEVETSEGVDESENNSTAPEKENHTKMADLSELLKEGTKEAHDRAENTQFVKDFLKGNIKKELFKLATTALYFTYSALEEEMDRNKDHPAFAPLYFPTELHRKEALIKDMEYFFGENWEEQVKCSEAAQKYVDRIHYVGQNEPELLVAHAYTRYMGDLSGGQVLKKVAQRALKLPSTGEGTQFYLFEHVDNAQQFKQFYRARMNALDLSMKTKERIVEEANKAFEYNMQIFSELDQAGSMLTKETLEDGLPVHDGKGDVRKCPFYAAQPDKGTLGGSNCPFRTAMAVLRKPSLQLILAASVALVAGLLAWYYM
In words: HO enzymatic activity, rat brain microsomal fraction (CO formation from methemalbumin). Format: biochemical. As for the experimental part:
as §1, §2, §3, §4

[1] abbreviates: CO formation from methemalbumin, mean ± SD of replicate experiments, read-out: IC50 HO-1 (rat spleen/μM).
Setting [2] is: CO formation from methemalbumin, mean ± SD of replicate experiments, read-out: IC50 HO-2 (rat brain)/μM).
Where [3] appears, read: IC50 HO-1 (rat spleen/μM), average ± SD of replicate experiments.
[4] abbreviates: IC50 HO-2 (rat brain)/μM), average ± SD of replicate experiments.
Where [5] appears, read: average ± SD of replicate experiments, read-out: IC50 HO-1 (rat spleen/μM).
The mark [6] stands for this setting: average ± SD of replicate experiments, read-out: IC50 HO-2 (rat brain)/μM).

As for `Cl.FC(F)(F)c1ccc(CCCCn2ccnc2)cc1`, the melting point (in general, the temperature of the solid-liquid transition) was 110 to 111 °C.

In the case of `COC(=O)c1ncnn1CC(=O)CCc1ccccc1` [QC-136, 2-(2-Oxo-4-phenyl-butyl)-2H-[1,2,4]triazole-3-carboxylic acid methyl ester], the IC50 on HO-1 (rat spleen) (setting [1]) and at HO-2 (rat brain) (setting [2]) was above 100 µM each time.

As to `CC(=O)NCCc1c[nH]cn1` [QC-138, N-[2-(1H-Imidazol-4-yl)-ethyl]-acetamide], the IC50 on HO-1 (rat spleen) (setting [1]) and at HO-2 (rat brain) (setting [2]) was above 100 µM throughout.

In the case of `O=C(Cn1ccnc1)c1ccccc1` [QC-141, 2-Imidazol-1-yl-1-phenyl-ethanone hydrochloride], the IC50 is 28 ± 4 µM at HO-1 (rat spleen) (setting [3]) and above 100 µM against HO-2 (rat brain) (setting [4]).

For the molecule `O=C(Cn1ccnc1)c1ccc(Cl)cc1` [QC-142, 1-(4-Chlorophenyl)-2-imidazol-1-yl-ethanone hydrochloride], the IC50 is 4 ± 2 µM at HO-1 (rat spleen) (setting [3]) and 20 ± 8 µM against HO-2 (rat brain) (setting [4]).

Turning to `c1ccc2[nH]c(NCCCCCN3CCCCC3)nc2c1` [QC-144, (1H-Benzoimidazol-2-yl)-(5-piperidin-1-yl-pentyl)-amine], the IC50 at HO-1 (rat spleen) (setting [5]) and on HO-2 (rat brain) (setting [6]) was above 100 µM each time.

In the case of `Nc1nc2cc(OCCCCN3CCCCC3)ccc2[nH]1` [QC-146, 5-(4-Piperidin-1-yl-butoxy)-1H-benzoimidazol-2-ylamine dihydrochloride 3/2 hydrate], the IC50 at HO-1 (rat spleen) (setting [5]) and on HO-2 (rat brain) (setting [6]) was above 100 µM in each case.

Regarding `Cn1c(NCCc2c[nH]cn2)nc2ccccc21` [QC-147, [2-(1H-Imidazol-4-yl)-ethyl]-(1-methyl-1H-benzoimidazol-2-yl)-amine dihydrochloride], the IC50 on HO-1 (rat spleen) (setting [3]) and on HO-2 (rat brain) (setting [4]) was above 100 µM in each case.

`CCN1CCN(c2nc3ccccc3[nH]2)CC1` [QC-148, 2-(4-Ethyl-piperazin-1-yl)-1H-benzoimidazole dihydrochloride hemihydrate]: the IC50 on HO-1 (rat spleen) (setting [5]) and at HO-2 (rat brain) (setting [6]) was above 100 µM each time.

Take `c1ccc2[nH]c(NC3CCC(c4cnc[nH]4)CC3)nc2c1` (stereo not drawn) [QC-149, (1H-Benzoimidazol-2-yl)-[4-(3H-imidazol-4-yl)-cyclohexyl]-amine dihydrochloride]: the IC50 at HO-1 (rat spleen) (setting [5]) and at HO-2 (rat brain) (setting [6]) was above 200 µM in each case.

On to `O=C(CCc1ccccc1)Cn1cnc([N+](=O)[O-])n1` [QC-152, 1-(3-Nitro-[1,2,4]triazol-1-yl)-4-phenyl-butan-2-one], for which the IC50 at HO-1 (rat spleen) (setting [5]) and on HO-2 (rat brain) (setting [6]) was above 100 µM each time.

Consider `N#Cc1ncn(CC(=O)CCc2ccccc2)c1C#N` [QC-154, 1-(2-Oxo-4-phenylbutyl)-1H-imidazole-4,5-dicarbonitrile hydrochloride], for which the IC50 against HO-1 (rat spleen) (setting [3]) and against HO-2 (rat brain) (setting [4]) was above 100 µM in each case.

Take `CS(=O)(=O)c1ncn(CC(=O)CCc2ccccc2)n1` [QC-155, 1-(3-Methanesulfonyl-[1,2,4]triazol-1-yl)-4-phenyl-butan-2-one]: the IC50 at HO-1 (rat spleen) (setting [5]) and at HO-2 (rat brain) (setting [6]) was above 100 µM each time.

In the case of `CS(=O)(=O)c1ncnn1CC(=O)CCc1ccccc1` [QC-156, 1-(5-Methanesulfonyl-[1,2,4]triazol-1-yl)-4-phenyl-butan-2-one], the IC50 at HO-1 (rat spleen) (setting [5]) and at HO-2 (rat brain) (setting [6]) was above 100 µM throughout.

On to `O=C(Cn1cncn1)c1ccccc1` [QC-157, 1-Phenyl-2-[1,2,4]triazol-1-yl-ethanone hydrochloride], for which the figures for the IC50 against HO-1 (rat spleen) (setting [3]) and against HO-2 (rat brain) (setting [4]) were 12 ± 0.9 µM and above 100 µM, respectively.

Take `O=C(Cn1cncn1)c1ccc(Cl)cc1` [QC-158, 1-(4-Chlorophenyl)-2-[1,2,4]triazol-1-yl-ethanone hydrochloride]: the IC50 at HO-1 (rat spleen) (setting [3]) amounted to 2.2 ± 0.5 µM; against HO-2 (rat brain) (setting [4]), 122 ± 0.1 µM.

Regarding `O=C(Cn1ccnc1)c1ccc([N+](=O)[O-])cc1` [QC-159, 2-Imidazol-1-yl-1-(4-nitro-phenyl)-ethanone hydrochloride], the IC50 against HO-1 (rat spleen) (setting [3]) is 2.5 ± 0.2 µM; against HO-2 (rat brain) (setting [4]) it was above 100 µM.

On to `O=C(CCc1ccccc1)Cn1ccnc1[N+](=O)[O-]` [QC-160, 1-(2-Nitro-imidazol-1-yl)-4-phenyl-butan-2-one hydrochloride], for which the IC50 at HO-1 (rat spleen) (setting [3]) and against HO-2 (rat brain) (setting [4]) was above 100 µM each time.

Take `O=C(Cn1ccnc1)c1ccc(Br)cc1` [QC-161, 1-(4-Bromophenyl)-2-imidazol-1-yl-ethanone hydrochloride]: the IC50 was determined as 3.2 ± 0.8 µM against HO-1 (rat spleen) (setting [3]) and 14 ± 2 µM against HO-2 (rat brain) (setting [4]).

For `O=C(Cn1ccnc1)c1ccc2ccccc2c1` [QC-162, 2-Imidazol-1-yl-1-napthalen-2-yl-ethanone hydrochloride], the IC50 on HO-1 (rat spleen) (setting [5]) worked out at 1.9 ± 0.1 µM; on HO-2 (rat brain) (setting [6]) it was 12 ± 0.05 µM.

Turning to `COc1ccc(C(=O)Cn2ccnc2)cc1` [QC-163, 2-Imidazol-1-yl-1-(4-methoxyphenyl)-ethanone hydrochloride], the IC50 on HO-1 (rat spleen) (setting [5]) stood at 32 ± 4 µM; against HO-2 (rat brain) (setting [4]), 62 ± 3 µM.

Turning to `Cc1ccc(C(=O)Cn2ccnc2)cc1` [QC-165, 2-Imidazol-1-yl-1-p-tolyl-ethanone hydrochloride], the results for the IC50 against HO-1 (rat spleen) (setting [3]) and at HO-2 (rat brain) (setting [4]) were 17 ± 4 µM and 69 ± 16 µM, respectively.

On to `O=C(Cn1ccnc1)c1ccc(-c2ccccc2)cc1` [QC-166, 1-Biphenyl-4-yl-2-imidazol-1-yl-ethanone hydrochloride], for which the values for the IC50 against HO-1 (rat spleen) (setting [3]) and on HO-2 (rat brain) (setting [4]) were 2.1 ± 0.7 µM and 3 ± 0.7 µM, respectively.

As for `CCOC(=O)Cc1nnn(CC(=O)CCc2ccccc2)n1` [QC-178, [2-(2-Oxo-4-phenyl-butyl)-2H-tetrazol-5-yl]-acetic acid ethyl ester], the IC50 at HO-1 (rat spleen) (setting [5]) and at HO-2 (rat brain) (setting [6]) was above 100 µM each time.

Take `NC[C@@H]1CO[C@@](CCc2ccccc2)(Cn2ccnc2)O1` [QC-190, {2-[2-(phenyl)-ethyl]-2-imidazol-1-ylmethyl-[1,3]dioxolan-4-yl}-methylamine dihydrochloride]: the IC50 at HO-1 (rat spleen) (setting [5]) was 21 ± 3 µM; on HO-2 (rat brain) (setting [6]) it was above 100 µM.

Turning to `N#CSC[C@@H]1CO[C@@](CCc2ccc(Cl)cc2)(Cn2ccnc2)O1` [QC-197, 1-{2-[2-(4-Chloro-phenyl)-ethyl]-4-thiocyanatomethyl-[1,3]dioxolan-2-ylmethyl}-1H-imidazole hydrochloride], the values for the IC50 on HO-1 (rat spleen) (setting [3]) and against HO-2 (rat brain) (setting [4]) were 3 ± 0.9 µM and above 100 µM, respectively.

Take `Brc1ccc(CCCCn2ccnc2)cc1` [QC-199, 1-[4-(4-Bromo-phenyl)-butyl]-1H-imidazole hydrochloride]: the IC50 against HO-1 (rat spleen) (setting [3]) amounted to 0.25 ± 0.02 µM; against HO-2 (rat brain) (setting [4]), 6.7 ± 0.3 µM.

As for `O=C(CCc1ccc(O)cc1)Cn1ccnc1` [QC-206, 4-(4-Hydroxyphenyl)-1-(1H-imidazol-1-yl)butan-2-one hydrochloride], the IC50 at HO-1 (rat spleen) (setting [5]) stood at 382 µM; on HO-2 (rat brain) (setting [6]), 251 µM.

Take `O=C(CCn1ccnc1)c1ccccc1` [QC-242, 3-(1H-Imidazol-1-yl)-1-phenyl-propan-1-one hydrochloride]: the IC50 on HO-1 (rat spleen) (setting [3]) is 79 µM; against HO-2 (rat brain) (setting [4]), above 100 µM.

For the molecule `c1ccc(C2(Cn3ccnc3)OCCO2)cc1` [QC-246, 1-(2-Phenyl-[1,3]dioxolan-2-ylmethyl)-1H-imidazole hydrochloride], the IC50 is 32 ± 3 µM against HO-1 (rat spleen) (setting [3]) and above 100 µM on HO-2 (rat brain) (setting [4]).

Turning to `c1ccc(C2(Cn3cncn3)OCCO2)cc1` [QC-254, 1-(2-Phenyl-[1,3]dioxolan-2-ylmethyl-1H-[1,2,4]triazole hydrochloride], the IC50 is 144 ± 15 µM against HO-1 (rat spleen) (setting [3]) and above 100 µM against HO-2 (rat brain) (setting [4]).

For “(2R,4R)-2-[2-(4-phenyl)ethyl]-2-[(1H-imidazol-1-yl)methyl]-4-methyl-1,3-dioxolane hydrochloride [QC-35]”, the results for the IC50 on HO-1 (rat spleen) (setting [1]) and at HO-2 (rat brain) (setting [2]) were 2 ± 1 µM and above 43 µM, respectively.
